Test results taken from PubChem BioAssay (NCI).
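In this assay, cells in 96-well plates receive the compound at five concentrations for 48 hours. Endpoints are linearly interpolated between the surrounding concentrations. Abbreviation: GI50, concentration required for 50% inhibition of growth. TGI denotes the concentration required for complete inhibition of growth.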

Assays:
Assay in all cases: NCI tumour cell line growth inhibition, 48 h
[1] = tested on: NCI-H226 lung
[2] = tested on: U251 CNS
[3] = tested on: CCRF-CEM leukemia
[4] = tested on: HOP-62 NSCLC
[5] = tested on: M14 melanoma
[6] = tested on: OVCAR-5 ovarian
[7] = tested on: OVCAR-4 ovarian
[8] = tested on: SNB-75 CNS
[9] = tested on: HS 578T breast
[10] = tested on: BT-549 breast
[11] = tested on: SW-620 colon
[12] = tested on: OVCAR-3 ovarian
[13] = tested on: K-562 leukemia
[14] = tested on: HCT-15 colon
[15] = tested on: NCI-H522 lung
[16] = tested on: CAKI-1 renal
[17] = tested on: NCI-H23 lung
[18] = tested on: RPMI-8226 leukemia
[19] = tested on: MDA-MB-435
[20] = tested on: 786-0 renal
[21] = tested on: SF-268 CNS
[22] = tested on: IGROV1 ovarian
[23] = tested on: ACHN renal
[24] = tested on: SF-295 CNS
[25] = tested on: SK-MEL-28 melanoma
[26] = tested on: COLO 205 colon
[27] = tested on: RXF 393 renal
[28] = tested on: MALME-3M melanoma
[29] = tested on: NCI/ADR-RES ovarian
[30] = tested on: SN12C renal
[31] = tested on: HCT-116 colon
[32] = tested on: SK-MEL-5 melanoma
[33] = tested on: A549 NSCLC
[34] = tested on: LOX IMVI melanoma
[35] = tested on: HCC-2998 colon
[36] = tested on: DU-145 prostate
[37] = tested on: SNB-19 CNS
[38] = tested on: EKVX NSCLC
[39] = tested on: SK-MEL-2 melanoma
[40] = tested on: TK-10 renal
[41] = tested on: MOLT-4 leukemia
[42] = tested on: SR leukemia
[43] = tested on: KM12 colon
[44] = tested on: HOP-92 NSCLC
[45] = tested on: UO-31 renal
[46] = tested on: UACC-62 melanoma
[47] = tested on: MCF7 breast
[48] = tested on: NCI-H460 lung
[49] = tested on: HT29 colon
[50] = tested on: PC-3 prostate
[51] = tested on: SK-OV-3 ovarian
[52] = tested on: T-47D breast
[53] = tested on: MDA-MB-231 breast
[54] = tested on: A498 renal
[55] = tested on: HL-60(TB) leukemia
[56] = tested on: OVCAR-8 ovarian
[57] = tested on: UACC-257 melanoma
[58] = tested on: SF-539 CNS

## CCCS(=O)(=O)Nc1ccc(F)c(C(=O)c2c[nH]c3ncc(Cl)cc23)c1F
[1]
  GI50: 16.2 µM
  TGI: 78.1 µM
[2]
  GI50: 9.08 µM
  TGI: 60.5 µM
[3]
  GI50: 16.6 µM
  TGI: 99.1 µM
[4]
  GI50: 10.2 µM
  TGI: 65.8 µM
[5]
  GI50: 0.109 µM
  TGI: 5.18 µM
[6]
  GI50: 23.3 µM
  TGI: > 92.8 µM
[7]
  GI50: 9.74 µM
  TGI: 75.7 µM
[8]
  GI50: 4.9 µM
  TGI: 24.8 µM
[9]
  GI50: 3.9 µM
  TGI: 26.7 µM
[10]
  GI50: 13.3 µM
  TGI: 57.9 µM
[11]
  GI50: 22.6 µM
  TGI: 87.3 µM
[12]
  GI50: 15.4 µM
  TGI: 58.7 µM
[13]
  GI50: 9.87 µM
  TGI: > 81.5 µM
[14]
  GI50: 6.62 µM
  TGI: > 97.3 µM
[15]
  GI50: 8.34 µM
  TGI: 31.5 µM
[16]
  GI50: 3.65 µM
  TGI: 56.9 µM
[17]
  GI50: 20.7 µM
  TGI: > 91.6 µM
[18]
  GI50: 25.2 µM
  TGI: > 100 µM
[19]
  GI50: 0.337 µM
  TGI: 29.6 µM
[20]
  GI50: 10.7 µM
  TGI: 74.9 µM
[21]
  GI50: 13.5 µM
  TGI: 73 µM
[22]
  GI50: 5 µM
  TGI: 75.4 µM
[23]
  GI50: 3.78 µM
  TGI: 66.4 µM
[24]
  GI50: 5.35 µM
  TGI: 45.6 µM
[25]
  GI50: 0.109 µM
  TGI: 9.62 µM
[26]
  GI50: 0.116 µM
  TGI: 17.3 µM
[27]
  GI50: 5.23 µM
  TGI: 22.4 µM
[28]
  GI50: 0.0281 µM
  TGI: 0.174 µM
[29]
  GI50: 14.8 µM
  TGI: > 90.3 µM
[30]
  GI50: 7.66 µM
  TGI: 84.9 µM
[31]
  GI50: 6.21 µM
  TGI: 62.7 µM
[32]
  GI50: 1.24 µM
  TGI: 19 µM
[33]
  GI50: 9.87 µM
  TGI: 56.5 µM
[34]
  GI50: 2.05 µM
  TGI: 31.1 µM
[35]
  GI50: 17.7 µM
  TGI: 72.4 µM
[36]
  GI50: 7.55 µM
  TGI: 80.6 µM
[37]
  GI50: 29.7 µM
  TGI: 99.7 µM
[38]
  GI50: 18.3 µM
  TGI: 80.9 µM
[39]
  GI50: 4.37 µM
  TGI: 16.4 µM
[40]
  GI50: 6.3 µM
  TGI: 35.9 µM
[41]
  GI50: 14.7 µM
  TGI: > 83 µM
[42]
  GI50: 4.68 µM
  TGI: 48 µM
[43]
  GI50: 11.4 µM
  TGI: > 79.8 µM
[44]
  GI50: 3.2 µM
  TGI: 15.4 µM
[45]
  GI50: 6.4 µM
  TGI: 66.3 µM
[46]
  GI50: 0.0639 µM
  TGI: 2.14 µM
[47]
  GI50: 20.2 µM
  TGI: 69.9 µM
[48]
  GI50: 5.92 µM
  TGI: 50.3 µM
[49]
  GI50: 0.2 µM
  TGI: 21.8 µM
[50]
  GI50: 10.6 µM
  TGI: 77.6 µM
[51]
  GI50: 3.76 µM
  TGI: 36.5 µM
[52]
  GI50: 8.55 µM
  TGI: 65 µM
[53]
  GI50: 9.09 µM
  TGI: 33.7 µM
[54]
  GI50: 5.14 µM
  TGI: 24 µM
[55]
  GI50: 20 µM
  TGI: 57.4 µM
[56]
  GI50: 8.81 µM
  TGI: 61.8 µM
[57]
  GI50: 0.129 µM
  TGI: 1.18 µM
[58]
  GI50: 9.1 µM
  TGI: 57.4 µM

## O=C1Nc2cc(Cl)ccc2/C1=C\c1c(-c2ccc(F)cc2)nc2ccccn12
[1]
  GI50: 1.32 µM
  TGI: 3.65 µM
[2]
  GI50: 0.541 µM
  TGI: 2.09 µM
[3]
  GI50: 0.832 µM
  TGI: > 100 µM
[4]
  GI50: 0.916 µM
  TGI: 2.29 µM
[5]
  GI50: 0.51 µM
  TGI: 2.57 µM
[6]
  GI50: 1.7 µM
  TGI: 5.81 µM
[7]
  GI50: 1.45 µM
  TGI: 3 µM
[8]
  GI50: 0.304 µM
  TGI: 1.34 µM
[9]
  GI50: 1.66 µM
  TGI: > 20.4 µM
[10]
  GI50: 1.21 µM
  TGI: 5.68 µM
[11]
  GI50: 0.445 µM
  TGI: 2.6 µM
[12]
  GI50: 0.424 µM
  TGI: 2.97 µM
[13]
  GI50: 0.32 µM
  TGI: > 100 µM
[14]
  GI50: 0.686 µM
  TGI: 7.26 µM
[15]
  GI50: 0.239 µM
  TGI: 0.919 µM
[16]
  GI50: 0.498 µM
  TGI: 2.13 µM
[17]
  GI50: 0.765 µM
  TGI: 4.45 µM
[18]
  GI50: 1.36 µM
[19]
  GI50: 0.167 µM
  TGI: 0.519 µM
[20]
  GI50: 0.998 µM
  TGI: 2.59 µM
[21]
  GI50: 1.29 µM
  TGI: > 24.6 µM
[22]
  GI50: 1.02 µM
  TGI: 5.82 µM
[23]
  GI50: 1.25 µM
  TGI: 3.22 µM
[24]
  GI50: 0.376 µM
  TGI: 1.73 µM
[25]
  GI50: 0.995 µM
  TGI: 4.59 µM
[26]
  GI50: 0.552 µM
  TGI: 1.94 µM
[27]
  GI50: 0.631 µM
  TGI: 2.19 µM
[28]
  GI50: 0.69 µM
  TGI: 2.41 µM
[29]
  GI50: 0.277 µM
  TGI: 1.06 µM
[30]
  GI50: 1.03 µM
[31]
  GI50: 0.444 µM
  TGI: 1.63 µM
[32]
  GI50: 0.559 µM
  TGI: 2.04 µM
[33]
  GI50: 0.69 µM
  TGI: 2.15 µM
[34]
  GI50: 0.723 µM
  TGI: 2.65 µM
[35]
  GI50: 1.1 µM
  TGI: 2.88 µM
[36]
  GI50: 1.49 µM
[37]
  GI50: 1.15 µM
  TGI: 22.1 µM
[38]
  GI50: 2.77 µM
  TGI: > 100 µM
[39]
  GI50: 0.458 µM
  TGI: 2.19 µM
[40]
  GI50: 1.38 µM
  TGI: 2.99 µM
[41]
  GI50: 0.563 µM
  TGI: > 100 µM
[42]
  GI50: 0.112 µM
  TGI: > 100 µM
[43]
  GI50: 0.573 µM
  TGI: > 100 µM
[44]
  GI50: 4.42 µM
  TGI: 26.5 µM
[45]
  GI50: 0.686 µM
  TGI: 2.7 µM
[46]
  GI50: 0.546 µM
  TGI: 12.4 µM
[47]
  GI50: 0.387 µM
  TGI: 2.42 µM
[48]
  GI50: 0.408 µM
  TGI: 1.49 µM
[49]
  GI50: 0.389 µM
  TGI: 1.34 µM
[50]
  GI50: 1.14 µM
  TGI: 5.39 µM
[51]
  GI50: 1.05 µM
  TGI: 2.42 µM
[52]
  GI50: 1.12 µM
  TGI: 2.96 µM
[53]
  GI50: 1.48 µM
  TGI: 6.38 µM
[54]
  GI50: 1.31 µM
  TGI: 6.03 µM
[55]
  GI50: 0.346 µM
  TGI: 1.46 µM
[56]
  GI50: 1.98 µM
  TGI: 8.21 µM
[57]
  GI50: 5.02 µM
  TGI: 48.5 µM
[58]
  GI50: 0.915 µM
  TGI: 2.95 µM
